Like-named read-outs stand apart in the source and are kept apart here.

The source of these data is patent publication US8618163B2, “Derivatives of cycloalkyl- and cycloalkenyl-1,2-dicarboxylic acid compounds having formyl peptide receptor like-1 (FPRL-1) agonist or antagonist activity” (Allergan, Inc., priority 2010, dated 2013).

Experiment [1] addresses T1, FPRL1 (Homo sapiens, UniProt P25090).
T1 construct: expressed in transfected cells; host or cells: CHO-Gal6 (CHO cells with G alpha 16)
T1 sequence (P25090 1-351): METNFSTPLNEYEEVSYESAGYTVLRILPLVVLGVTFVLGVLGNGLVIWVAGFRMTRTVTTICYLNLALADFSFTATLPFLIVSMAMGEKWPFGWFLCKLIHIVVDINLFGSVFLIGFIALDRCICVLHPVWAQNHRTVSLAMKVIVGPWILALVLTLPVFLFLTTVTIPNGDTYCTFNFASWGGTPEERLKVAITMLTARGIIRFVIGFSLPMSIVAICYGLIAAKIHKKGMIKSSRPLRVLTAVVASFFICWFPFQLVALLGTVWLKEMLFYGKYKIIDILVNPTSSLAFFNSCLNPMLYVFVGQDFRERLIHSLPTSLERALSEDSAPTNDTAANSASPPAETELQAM
The experiment can be described thus: compound-induced calcium activity on FLIPR Tetra in CHO-Gal6 cells stably expressing FPRL1. It is filed as cell-based. To be noted: for FPRL1 (rel. eff.): relative efficacy. The method in brief: (§1)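 FPRL1 tested in CHO-Gal6 cells and FPR1 in HEK-Gqi5 cells, both stably expressing receptor and plated the day before. Compound-induced calcium response measured on FLIPR Tetra at 0.61 to 10,000 nM. EC50 (nM) and efficacy reported.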

Experiment [2] has as its target T2, FPR1 (Homo sapiens, UniProt P21462).
T2 construct: expressed in transfected cells; host or cells: HEK-Gqi5 (HEK cells with chimeric G protein Gqi5)
T2 sequence (P21462 1-350): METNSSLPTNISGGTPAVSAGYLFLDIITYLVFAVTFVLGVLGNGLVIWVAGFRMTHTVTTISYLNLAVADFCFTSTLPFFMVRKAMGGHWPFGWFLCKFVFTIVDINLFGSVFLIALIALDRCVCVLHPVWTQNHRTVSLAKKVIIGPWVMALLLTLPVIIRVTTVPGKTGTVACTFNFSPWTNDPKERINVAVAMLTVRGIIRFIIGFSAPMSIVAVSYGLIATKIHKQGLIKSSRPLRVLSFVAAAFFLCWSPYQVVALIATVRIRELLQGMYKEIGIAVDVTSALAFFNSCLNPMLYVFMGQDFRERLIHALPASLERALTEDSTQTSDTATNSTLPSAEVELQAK
Briefly: compound-induced calcium activity on FLIPR Tetra in HEK-Gqi5 cells stable expressing FPR1. It is filed as cell-based. Details: FPR1 (rel. eff.): scale not given here. To be noted: for FPR1 (rel. eff.): relative efficacy. The method in brief:
as §1

The mark [3] stands for this setting: calcium, FLIPR Tetra, tested 0.61 to 10,000 nM, read-out: FPRL1 EC50.
The mark [4] stands for this setting: class symbol NA, read-out: FPR1 EC50 (NA = Not Active).
The mark [5] stands for this setting: calcium, FLIPR Tetra, tested 0.61 to 10,000 nM, read-out: FPR1 EC50.

For the molecule `CC(C)OC(=O)[C@@H]1[C@H](C(=O)Nc2ccc(Br)cc2)[C@@H]2CC[C@H]1C21CC1` (racemic) [Compound 86, (+/−)-(1S,2R,3S,4R)-Isopropyl 2-((4-bromophenyl)carbamoyl)spiro[bicyclo[2.2.1]heptane-7,1′-cyclopropane]-3-carboxylate], the EC50 in experiment [1] (setting [3]) is 2.11 µM; in experiment [2] (setting [4]) it was greater than 10 µM. Moreover, the “FPRL1 (rel. eff.)” value in experiment [1] (calcium, FLIPR Tetra) came out at 1.0.

Turning to `CC(C)(C)c1ccc(NC(=O)C2C(C(=O)O)C3C=CC2C32CC2)cc1` (racemic) [Compound 5, (+/−)-(1R,4S,5R,6S)-5-(4-tert-Butylphenylcarbamoyl)spiro[bicyclo[2.2.1]hept[2]ene-7,1′-cyclopropane]-6-carboxylic Acid], the EC50 was greater than 10 µM in experiment [1] (class symbol NA, read-out: FPRL1 EC50 (NA = Not Active)) and greater than 10 µM in experiment [2] (setting [4]).

For `CC(C)=C1C2CCC1C(C(=O)Nc1ccc(Br)cc1)C2C(=O)O` (racemic) [Compound 24, (+/−)-(1S,2R,3S,4S)-3-(4-Bromophenylcarbamoyl)[bicyclo[2.2.1]heptane-7-propan-2-ylidene]-2-carboxylic Acid], the 50% effective concentration (EC50) in experiment [1] (setting [3]) is 0.164 µM; in experiment [2] (setting [5]) it was 8.3 µM. The “FPRL1 (rel. eff.)” value in experiment [1] (calcium, FLIPR Tetra) came out at 0.89.

As to `CSc1ccc(NC(=O)[C@H]2[C@@H](C(=O)O)[C@H]3CC[C@@H]2C32CC2)cc1` (racemic) [Compound 42, (+/−)-(1R,2S,3R,4S)-3-((4-(Methylthio)phenyl)carbamoyl)spiro[bicyclo-[2.2.1]heptane-7,1′-cyclopropane]-2-carboxylic Acid], the EC50 in experiment [1] (setting [3]) stood at 0.007 µM; in experiment [2] (setting [5]) it was 1.1 µM. In experiment [1] (calcium, FLIPR Tetra), the “FPRL1 (rel. eff.)” value was determined as 0.96. In addition, the “FPR1 (rel. eff.)” value in experiment [2] (calcium, FLIPR Tetra) is 0.23.

Consider `O=C(O)C1C(C(=O)Nc2ccccc2)C2C=CC1C21CC1` (racemic) [Compound 7, (+/−)-(1S,4R,5S,6R)-6-(Phenylcarbamoyl)spiro[bicycle[2.2.1]hept[2]ene-7,1′cyclopropane]-5-carboxylic Acid], for which, in experiment [1] (calcium, FLIPR Tetra), the “FPRL1 (rel. eff.)” value is recorded as “ND (0.33)”. The EC50 in experiment [2] (setting [4]) was greater than 10 µM.

`O=C(O)C1=C(C(=O)Nc2ccc(Br)cc2)C2CCC1CC2` [Compound 60, (1s,4s)-3-((4-Bromophenyl)carbamoyl)bicyclo[2.2.2]oct-2-ene-2-carboxylic Acid]: the EC50 in experiment [1] (setting [3]) is 0.143 µM; in experiment [2] (setting [4]), greater than 10 µM. For the same molecule, the “FPRL1 (rel. eff.)” value in experiment [1] (calcium, FLIPR Tetra) was determined as 1.0.

`C[S+]([O-])c1ccc(NC(=O)C2C(C(=O)O)C3CCC2C32CC2)cc1` (racemic) [Compound 44, (+/−)-(1R,2S,3R,4S)-3-((4-(Methylsulfinyl)phenyl)carbamoyl)spiro[bicyclo-[2.2.1]heptane-7,1′-cyclopropane]-2-carboxylic Acid]: the results for the EC50 in experiment [1] (setting [3]) and in experiment [2] (setting [4]) were 0.475 µM and greater than 10 µM, respectively. In experiment [1] (calcium, FLIPR Tetra), the “FPRL1 (rel. eff.)” value came to 0.95.

For the molecule `O=C(Nc1ccc(Br)cc1)[C@H]1[C@@H](C=NO)[C@H]2CC[C@@H]1C21CC1` (racemic) [Compound 92, (+/−)-(1S,2R,3S,4R)—N-(4-Bromophenyl)-3-((hydroxyimino)methyl)spiro[bicyclo[2.2.1]heptane-7,1′-cyclopropane]-2-carboxamide], the EC50 in experiment [1] (setting [3]) was 4.38 µM; in experiment [2] (setting [4]), greater than 10 µM. In experiment [1] (calcium, FLIPR Tetra), the “FPRL1 (rel. eff.)” value is 0.5.

`O=C(O)C1C(C(=O)Nc2ccc(Br)cc2)C2CCC1C21CC1` (single isomer, unassigned) [Compound 10B]: the EC50 is less than 0.001 µM in experiment [1] (setting [3]) and 2.17 µM in experiment [2] (setting [5]). Moreover, in experiment [1] (calcium, FLIPR Tetra), the “FPRL1 (rel. eff.)” value was determined as 0.98. The “FPR1 (rel. eff.)” value in experiment [2] (calcium, FLIPR Tetra) was determined as 0.76.

For the molecule `O=C(O)[C@@H]1[C@H](C(=O)NNc2ccc(Br)cc2)[C@@H]2CC[C@H]1C21CC1` (racemic) [Compound 87, (+/−)-(1S,2R,3S,4R)-2-(2-(4-Bromophenyl)hydrazinecarbonyl)spiro[bicyclo[2.2.1]heptane-7,1′-cyclopropane]-3-carboxylic Acid], the results for the EC50 in experiment [1] (setting [3]) and in experiment [2] (setting [4]) were 0.456 µM and greater than 10 µM, respectively. Further, the “FPRL1 (rel. eff.)” value in experiment [1] (calcium, FLIPR Tetra) amounted to 0.89.

Turning to `CN(C(=O)[C@H]1[C@@H](C(=O)O)[C@H]2CC[C@@H]1C21CC1)c1ccc(Br)cc1` (racemic) [Compound 88, (+/−)-(1S,2R,3S,4R)-2-((4-Bromophenyl)(methyl)carbamoyl)spiro[bicyclo[2.2.1]heptane-7,1′-cyclopropane]-3-carboxylate], the values for the EC50 in experiment [1] (setting [3]) and in experiment [2] (setting [4]) were 0.41 µM and greater than 10 µM, respectively. In addition, the “FPRL1 (rel. eff.)” value in experiment [1] (calcium, FLIPR Tetra) was 0.94.

Turning to `CC(C)c1ccc(NC(=O)C2C(C(=O)O)C3C=CC2C32CC2)cc1` (racemic) [Compound 6, (+/−)-(1S,4R,5S,6R)-6-(4-Isopropylphenylcarbamoyl)spiro[bicyclo[2.2.1]hept[2]ene-7,1′-cyclopropane]-5-carboxylic Acid], the “FPRL1 (rel. eff.)” value in experiment [1] (calcium, FLIPR Tetra) was “ND (0.39)”. In addition, the EC50 in experiment [2] (setting [4]) was greater than 10 µM.

For the molecule `C[S+]([O-])c1ccc(NC(=O)C2C(C(=O)O)C3CCC2C32CC2)cc1` (racemic) [Compound 70, (+/−)-(1R,2S,3R,4S)-3-((4-Methylsulfinyl)phenyl)carbamoyl)spiro[bicyclo[2.2.1]-heptane-7,1′-cyclopropane]-2-carboxylic Acid], the EC50 is 0.475 µM in experiment [1] (setting [3]) and greater than 10 µM in experiment [2] (setting [4]). In addition, the “FPRL1 (rel. eff.)” value in experiment [1] (calcium, FLIPR Tetra) is on record as 0.95.

For the molecule `CCc1ccc(NC(=O)[C@H]2[C@@H](C(N)=O)[C@H]3CC[C@@H]2C32CC2)cc1` (racemic) [Compound 52, (+/−)-(1S,2R,3S,4R)—N^2-(4-Ethylphenyl)spiro[bicyclo[2.2.1]heptane-7,1′-cyclopropane]-2,3-dicarboxamide], the EC50 was 0.033 µM in experiment [1] (setting [3]) and greater than 10 µM in experiment [2] (setting [4]). Further, in experiment [1] (calcium, FLIPR Tetra), the “FPRL1 (rel. eff.)” value amounted to 0.97.

Regarding `NC(=O)[C@@H]1[C@H](C(=O)Nc2ccc(I)cc2)[C@@H]2CC[C@H]1C21CC1` (racemic) [Compound 62, (+/−)-(1S,2R,3S,4R)—N^2-(4-Iodophenyl)-[bicyclo[2.2.1]heptane-7,1′-cyclopropane]-2,3-dicarboxamide], the values for the EC50 in experiment [1] (setting [3]) and in experiment [2] (setting [4]) were 0.005 µM and greater than 10 µM, respectively. Besides, the “FPRL1 (rel. eff.)” value in experiment [1] (calcium, FLIPR Tetra) is reported as 0.89.

Regarding `CCc1ccc(NC(=O)C2C(C(=O)O)C3C=CC2C32CC2)cc1` (racemic) [Compound 36, (+/−)-(1S,4R,5S,6R)-6-((4-Ethylphenyl)carbamoyl)spiro[bicyclo[2.2.1]hept[2]ene-7,1′-cyclopropane]-5-carboxylic Acid], the EC50 in experiment [1] (setting [3]) was 0.059 µM; in experiment [2] (setting [4]), greater than 10 µM. In addition, in experiment [1] (calcium, FLIPR Tetra), the “FPRL1 (rel. eff.)” value was determined as 0.91.

As a reminder, the EC50 is the concentration giving half of the maximal effect.
